What was measured:
[1] = test system: SCLC cells (RPP631, DMS79, GLC16, NCI-H69, NCI-H82); experiment: Cell viability assay (CCK-8); assay type: cell-based, mouse, human
Procedure: Cells were seeded in 96-well plates (0.01-0.02×10^6 cells/well) in media and treated with YKL-5-124 at indicated concentrations and time points. Cell viability was measured using the MTS-based CCK-8 assay (Dojindo, Cat #CK04). Absorption at 450 nm was measured 3 hr after addition of CCK-8 reagent to cells.

[2] = test system: INSM1, ASCL1, NFIB and MYC in DMS79 and GLC16; experiment: RT-qPCR of super enhancer (SE)-associated genes; assay type: cell-based, human; settings: 24 hr
Procedure: (§1) Cell pellets were collected and then subjected to total RNA extraction using RNeasy Plus Mini Kit (QIAGEN, Cat #74136) according to the manufacturer's instructions, or using TRIzol:Chloroform phase-separation by centrifugation followed by RNA precipitation using isopropanol. The extracted RNA was reversely transcribed into cDNA using the High-Capacity RNA-to-cDNA™ Kit (Thermo Fisher Scientific, Cat #4387406) according to the manufacturer's instructions. The obtained cDNA samples were diluted and used for RT-qPCR. PowerUp™ SYBR™ Green Master Mix (Thermo Fisher Scientific, Cat #A25742) or TaqMan Gene Expression Master Mix (Life Technologies, Cat #4369514). Gene specific primers with sequences listed in Table 3 were used for PCR amplification and detection on the StepOnePlus™ Real-Time PCR System (Thermo Fisher Scientific). RT-qPCR data were normalized to Actb (mouse cells) or GUSB (human cells) and presented as fold changes of gene expression in the test sample compared to the control.

RP orthotopic model = experiment: Treatment study in RP orthotopic SCLC model; assay type: in vivo, mouse
Procedure: All animal studies were reviewed and approved by the Institutional Animal Care and Use Committee (IACUC) at the New York University Langone Health (NYULH) and Dana-Farber Cancer Institute (DFCI). From 6 weeks of age, mice were induced with adenovirus-Cre recombinase (Ad-Cre) by intratracheal intubation to allow cre-lox-mediated recombination of floxed Rb1, p53 and p130 alleles. For syngeneic orthotopic models, ultrasound-guided transthoracic injection was performed using 200,000 RPP631, RP or RPP-MYC cells in 30 μL PBS directly into the lung of 6 to S-week-old C57BL/6 (Jackson Laboratory, Stock No: 000664). For OT-IT cell assay, OT-I mice were purchased from the Jackson Laboratory (Stock No: 003S31). Both males and females mice were used and all mice were maintained in accordance with the respective NYULH and DFCI on the care, welfare, and treatment of laboratory animals. […]
Animals were anesthetized with isoflurane to perform MRI of the lung field using BioSpec USR70/30 horizontal bore system (Bruker) to scan 24 consecutive sections. Tumor volumes within the whole lung were quantified using 3-D slicer software to reconstruct MRI volumetric measurements as described previously. […]

[3] = test system: C-terminal domain (CTD) phosphorylation of RNA Pol II; experiment: Western blotting of RNA Pol II CTD phosphorylation in SCLC lines; assay type: cell-based, mouse, human; settings: 24 hr
Procedure: Cells in culture were collected by centrifuging at 1,500 rpm and then washed with ice-cold PBS twice to completely remove residual medium. RIPA lysis buffer (Thermo Fisher Scientific, Cat #89900) supplemented with Halt™ Protease and Phosphatase Inhibitor Cocktail (Thermo Fisher Scientific, Cat #78440) was added to cell pellets to extract protein. Protein concentrations in lysates were measured by Pierce™ BCA Protein Assay Kit (Thermo Fisher Scientific, Cat #23225) and followed by the addition of SDS loading buffer (6×) and heated at 95° C. for 5 min. Equal amount of protein samples was subjected to 4-20% gradient gel SDS-PAGE and transferred to a nitrocellulose membrane (Bio-Rad, Cat #1704271). The membrane was blocked in Odyssey® Blocking Buffer (LI-COR, Cat #927-50003) at room temperature for 1 hour and incubated with appropriate antibodies at 4° C. overnight (Key Resources Table). Antibodies were diluted in TBST (TBS with 0.1% Tween) with 20% LI-COR Odyssey Blocking Buffer. On the next day, the membrane was washed with TBST (TBS with 0.1% Tween) four times and incubated with appropriate secondary antibodies (LI-COR, anti-Rabbit, Cat #925-32213; anti-Mouse, Cat #925-68072) at room temperature for 1 hour. Membranes were imaged using the LI-COR Odyssey® Imaging System.

[4] = test system: Cyclin K, the obligate binding partner of CDK12/13; experiment: Competitive pulldown assay (Bio-THZ1), Cyclin K; assay type: cell-based, mouse; settings: SCLC cells treated 6 hours
Procedure: (§2) Bio-THZ1 pulldown experiments followed by western blotting of enriched proteins was performed as described in Kwiatkowski, et al., Nature, 2014, 511, 616-620. Briefly, cells were treated with YKL-5-124 or DMSO for 6 hr (in vitro) or 72 hr (in vivo). Following treatment, cells were washed twice with cold PBS and then lysed in the following lysis buffer: 50 mM TrisHCI pH 8.0, 150 mM NaCl, 1% NP-40, 5 mM EDTA, 1 mM DTT, and protease/phosphatase cocktails. Following clearance, lysates were treated with biotinylated THZ1 for pulldown overnight at 4° C. Lysates were further incubated at room temperature for 3 hr to increase the efficiency of covalent bond formation. Lysates were then incubated with streptavidin agarose for pulldown for an additional 2-3 hr at 4° C. Agarose beads were washed 5 times with lysis buffer and then boiled in 2×SDS at 95° C. SDS-page resolved precipitated proteins were probed for the indicated proteins.

[5] = test system: HAP1 cells expressing CDK7 wild-type (WT); experiment: RT-qPCR of TNF and CXCL10 in HAP1 CDK7 WT cells; assay type: cell-based, human; settings: 100 nM, 48 hr
Procedure: as §1

[6] = test system: TNFα, CXCL9 and CXCL10 in BALF; experiment: Luminex analysis of murine BAL fluid; assay type: in vivo, mouse; settings: after 7-day treatment
Procedure: Mouse lung bronchoalveolar lavage (BAL) was performed by intratracheal injection of 2 ml of sterile PBS followed by collection by aspiration. TNFα, CXCL9 and CXCL10 levels were measured using mouse Cytokine/Chemokine 32-plex Assay (MILLIPLEX, Millipore) on Luminex® SD system (Luminex). Concentrations (pg/ml) of each protein were derived from 5-parameter curve fitting models according to the manufacturer's instructions.

CDK7-Cyclin H complexes = experiment: Competitive pulldown assay (Bio-THZ1), Cyclin H; assay type: cell-based, mouse, human; settings: SCLC cells (RPP631, DMS79) treated 6 hours
Procedure: as §2

**Q.** C=CC(=O)Nc1ccc(C(=O)Nc2n[nH]c3c2CN(C(=O)N[C@H](CN(C)C)c2ccccc2)C3(C)C)cc1 [YKL-5-124] was tested. Which “growth rate (cell viability) compared to control cells” value ([1]; all tested concentrations, up to 7 days) did it give?
**A.** The value was “significant reduction”.

**Q.** And the “kind of growth effect” value ([1]; up to day 7)?
**A.** The value was “cytostatic effect with a tendency of cytotoxic effects at longer time points”.

**Q.** And the “expression of super enhancer (SE)-associated genes including INSM1, ASCL1, NFIB and MYC” value [2]?
**A.** Its value is “no effect”.

**Q.** And the “added median survival benefit” value (RP orthotopic model; RP model, vs control)?
**A.** The value was “approximately 30 days”.

**Q.** And the “tumor response / tumor growth (MRI tumor volume)” value (RP orthotopic model; RP orthotopic model)?
**A.** The value was “notably delayed tumor growth”.

**Q.** And the “C-terminal domain (CTD) phosphorylation of RNA Pol II (Ser2, Ser5)” value [3]?
**A.** The value was “no effect”.

**Q.** And the “block of pulldown of Cyclin K” value [4]?
**A.** The value was “failed to block”.

**Q.** What about the “TNF and CXCL10 expression” value [5] of the same molecule?
**A.** The value was “significant increase”.

**Q.** And the “TNFα, CXCL9 and CXCL10 in BALF” value [6]?
**A.** The value was “pronounced increase”.

**Q.** What about the “block of Cyclin H pulldown” value (CDK7-Cyclin H complexes) of the same molecule?
**A.** Its value is “efficiently prevented”.

Reference: patent US20230114207A1, “THE COMBINATION OF CYCLIN DEPENDENT KINASE 7 INHIBITOR AND IMMUNOTHERAPY FOR TREATMENT OF CANCER” (Dana-Farber Cancer Institute, Inc., priority 2019, published 2023)
